Test results from PubChem BioAssay AID248 (DTP/NCI, 2004).
Values joined by “and” are separate entries in the source; they are usually repeats but may differ in a detail not shown here. Equal entries are not always repeated. Inconclusive results and toxic doses are left out. No stated cut-off is given here; in the data, active means T/C of 150% or more; inactive means T/C below 125%.

Test system: L1210 leukemia ip in BDF1 mice, survival T/C
Test: NCI In Vivo Anticancer Drug Screen. Data for tumor model L1210 Leukemia (intraperitoneal) in B6D2F1 (BDF1) mice
Settings: endpoint: mean survival time, higher = longer survival
Outline: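 Transplanted-tumor mice were given test agent; controls received vehicle only. Survival readings from the two groups were divided (treated over control).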

[1] = dose: 400.0 mg/kg/injection, schedule: Q01DX001 (ip), vehicle: carboxymethylcellulose (CMC)
[2] = dose: 50.0 mg/kg/injection, schedule: Q01DX009 (ip), vehicle: Klucel (hydroxypropylcellulose) (HPC)
[3] = dose: 100.0 mg/kg/injection, schedule: Q01DX009 (ip), vehicle: Klucel (hydroxypropylcellulose) (HPC)
[4] = dose: 200.0 mg/kg/injection, schedule: Q01DX009 (ip), vehicle: Klucel (hydroxypropylcellulose) (HPC)
[5] = dose: 100.0 mg/kg/injection, schedule: Q01DX001 (ip), vehicle: Klucel (hydroxypropylcellulose) (HPC)
[6] = dose: 200.0 mg/kg/injection, schedule: Q01DX001 (ip), vehicle: Klucel (hydroxypropylcellulose) (HPC)
[7] = dose: 400.0 mg/kg/injection, schedule: Q01DX001 (ip), vehicle: Klucel (hydroxypropylcellulose) (HPC)
[8] = dose: 100.0 mg/kg/injection, schedule: Q04DX003 (ip), vehicle: saline with Tween-80
[9] = dose: 200.0 mg/kg/injection, schedule: Q04DX003 (ip), vehicle: saline with Tween-80
[10] = dose: 400.0 mg/kg/injection, schedule: Q04DX003 (ip), vehicle: saline with Tween-80
[11] = dose: 400.0 mg/kg/injection, schedule: Q01DX009 (ip), vehicle: Klucel (hydroxypropylcellulose) (HPC)
[12] = dose: 100.0 mg/kg/injection, schedule: Q01DX001 (ip), vehicle: saline
[13] = dose: 200.0 mg/kg/injection, schedule: Q01DX001 (ip), vehicle: saline
[14] = dose: 400.0 mg/kg/injection, schedule: Q01DX001 (ip), vehicle: saline
[15] = dose: 100.0 mg/kg/injection, schedule: Q01DX001 (ip), vehicle: carboxymethylcellulose (CMC)
[16] = dose: 200.0 mg/kg/injection, schedule: Q01DX001 (ip), vehicle: carboxymethylcellulose (CMC)
[17] = dose: 25.0 mg/kg/injection, schedule: Q04DX002 (ip), vehicle: saline with Tween-80
[18] = dose: 25.0 mg/kg/injection, schedule: Q01DX009 (ip), vehicle: saline with Tween-80
[19] = dose: 50.0 mg/kg/injection, schedule: Q01DX009 (ip), vehicle: saline with Tween-80

Measured: T/C

CCCNC(=O)NC1CCCCC1
inactive: dose: 264.0 mg/kg/injection, schedule: Q01DX001 (ip), vehicle: carboxymethylcellulose (CMC) 101 % of control | [1] 90 % of control | dose: 600.0 mg/kg/injection, schedule: Q01DX001 (ip), vehicle: carboxymethylcellulose (CMC) 98 % of control

c1ccc2sc(SSN3CCOCC3)nc2c1
inactive: [2] 97 % of control | [3] 113 % of control | dose: 100.0 mg/kg/injection, schedule: Q04DX003 (ip), vehicle: saline 101 % of control | [4] 91 % of control | dose: 200.0 mg/kg/injection, schedule: Q04DX003 (ip), vehicle: saline 92 % of control

O=c1c(N=Nc2ccc(Cl)cc2)c(O)n(-c2ccc(I)cc2)c(=S)n1-c1ccccc1
inactive: [5] 93 % of control | [6] 104 % of control | [7] 102 % of control

O=C(Nc1ccccc1)C1C2C=CC(C2)C1C(=O)Nc1ccccc1 (stereo unspecified)
inactive: [8] 93 % of control and 103 % of control | [9] 95 % of control and 87 % of control | [10] 91 % of control

O=C1NC(c2ccco2)N2C(=O)NC(c3ccco3)N12 (stereo unspecified)
inactive: dose: 100.0 mg/kg/injection, schedule: Q01DX009 (ip), vehicle: gum acacia 90 % of control | dose: 100.0 mg/kg/injection, schedule: Q04DX003 (ip), vehicle: gum acacia 101 % of control | dose: 200.0 mg/kg/injection, schedule: Q01DX009 (ip), vehicle: gum acacia 88 % of control | dose: 200.0 mg/kg/injection, schedule: Q04DX003 (ip), vehicle: gum acacia 95 % of control | dose: 400.0 mg/kg/injection, schedule: Q01DX009 (ip), vehicle: gum acacia 88 % of control | dose: 400.0 mg/kg/injection, schedule: Q04DX003 (ip), vehicle: gum acacia 106 % of control

CNc1ccc(C(=O)O)cc1I
inactive: [3] 100 % of control | dose: 100.0 mg/kg/injection, schedule: Q04DX003 (ip), vehicle: Klucel (hydroxypropylcellulose) (HPC) 94 % of control | [4] 94 % of control | dose: 200.0 mg/kg/injection, schedule: Q04DX003 (ip), vehicle: Klucel (hydroxypropylcellulose) (HPC) 103 % of control | [11] 94 % of control | dose: 400.0 mg/kg/injection, schedule: Q04DX003 (ip), vehicle: Klucel (hydroxypropylcellulose) (HPC) 96 % of control

CC1(C)OC(=O)C(=Cc2cccc3ccc4ccccc4c23)C(=O)O1
inactive: dose: 100.0 mg/kg/injection, schedule: Q01DX001 (ip), vehicle: gum acacia 100 % of control | dose: 200.0 mg/kg/injection, schedule: Q01DX001 (ip), vehicle: gum acacia 97 % of control | dose: 400.0 mg/kg/injection, schedule: Q01DX001 (ip), vehicle: gum acacia 101 % of control

CCN(CC)S(=O)(=O)c1ccc(OC)c(NC(=O)c2ccc(C(=O)Nc3cc(S(=O)(=O)N(CC)CC)ccc3OC)cc2)c1
inactive: [12] 97 % of control | [13] 94 % of control | [14] 102 % of control

COc1cc(/C=N\N=C\c2ccc(F)cc2)cc(OC)c1OC
inactive: [3] 93 % of control | [4] 93 % of control | [11] 88 % of control

CC(=O)/C(N=Nc1ccc(S(=O)(=O)c2ccc(N=N/C(C(C)=O)=C(/C)O)cc2)cc1)=C(\C)O
inactive: [8] 100 % of control | [9] 93 % of control | [10] 96 % of control

CSc1cc2c(c(SC)c1[N+](=O)[O-])C(=O)c1ccccc1-2
inactive: [15] 102 % of control | [16] 98 % of control | [1] 102 % of control

COC(=O)n1nc2ccccc2c1N
inactive: dose: 50.0 mg/kg/injection, schedule: Q01DX009 (ip), vehicle: saline 96 % of control | dose: 100.0 mg/kg/injection, schedule: Q01DX009 (ip), vehicle: saline 96 % of control | dose: 200.0 mg/kg/injection, schedule: Q01DX009 (ip), vehicle: saline 93 % of control

CCOC(=O)c1cnc(OCC)nc1Nc1ccccc1Br
inactive: [5] 100 % of control | [6] 95 % of control | [7] 97 % of control

CCCCCCC[CH2][Sn]1([CH2]CCCCCCC)[O]OC(c2ccccc2)[O]1 (stereo unspecified)
inactive: dose: 6.25 mg/kg/injection, schedule: Q04DX002 (ip), vehicle: saline with Tween-80 102 % of control | dose: 12.5 mg/kg/injection, schedule: Q04DX002 (ip), vehicle: saline with Tween-80 98 % of control | [17] 91 % of control

CC12CCC3C(CC4OC45CC(O)CCC35C)C1CCC21CO1 (stereo unspecified)
inactive: dose: 50.0 mg/kg/injection, schedule: Q01DX001 (sc), vehicle: steriod suspending solution 98 % of control | dose: 100.0 mg/kg/injection, schedule: Q01DX001 (sc), vehicle: steriod suspending solution 104 % of control | dose: 200.0 mg/kg/injection, schedule: Q01DX001 (sc), vehicle: steriod suspending solution 95 % of control | dose: 400.0 mg/kg/injection, schedule: Q01DX001 (sc), vehicle: steriod suspending solution 101 % of control

CCN(CC)CCN(C)C(=O)C(=O)c1ccccc1
inactive: dose: 75.0 mg/kg/injection, schedule: Q01DX001 (ip), vehicle: saline 98 % of control | dose: 150.0 mg/kg/injection, schedule: Q01DX001 (ip), vehicle: saline 101 % of control

O=C(OCCO)c1ccc(O)cc1
inactive: [12] 88 % of control | [13] 93 % of control | [14] 88 % of control

O=C(O)c1ccc(/C=N/NC(=O)C(O)(c2ccccc2)c2ccccc2)cc1
inactive: [15] 108 % of control | [16] 108 % of control | [1] 108 % of control

O=C(Cc1ccccc1)c1ccc2c3c(ccc([N+](=O)[O-])c13)CC2
inactive: dose: 100.0 mg/kg/injection, schedule: Q04DX003 (ip), vehicle: acetone 101 % of control | dose: 200.0 mg/kg/injection, schedule: Q04DX003 (ip), vehicle: acetone 105 % of control | dose: 400.0 mg/kg/injection, schedule: Q04DX003 (ip), vehicle: acetone 105 % of control

CC(=O)OC(c1ccccc1)C1CCCCC1N1CCCCC1 (stereo unspecified)
inactive: [5] 95 % of control | [6] 96 % of control

COc1ccc(NC(=S)NN)cc1
inactive: [18] 103 % of control | [19] 89 % of control | dose: 100.0 mg/kg/injection, schedule: Q01DX009 (ip), vehicle: saline with Tween-80 95 % of control

C=C(C)COc1c(C)cc(C)cc1C=Nc1ccccc1
inactive: [8] 109 % of control | [9] 106 % of control | [10] 105 % of control

COC1CCC(N)CC1 (stereo unspecified)
inactive: [12] 109 % of control | [13] 107 % of control | [14] 97 % of control

COc1ccc(C=O)cc1OCCOc1cc(C=O)ccc1OC
inactive: [2] 91 % of control | [3] 108 % of control | [4] 94 % of control

NNCCO
inactive: [18] 97 % of control | [17] 94 % of control | [19] 106 % of control | dose: 50.0 mg/kg/injection, schedule: Q04DX002 (ip), vehicle: saline with Tween-80 105 % of control | dose: 100.0 mg/kg/injection, schedule: Q04DX002 (ip), vehicle: saline with Tween-80 106 % of control

O=C1C=CC(=O)N1c1ccc(Cc2ccc(N3C(=O)C=CC3=O)cc2)cc1
inactive: dose: 26.6 mg/kg/injection, schedule: Q01DX Z (ip), vehicle: methylcellulose (MC) 90 % of control | dose: 40.0 mg/kg/injection, schedule: Q01DX Z (ip), vehicle: methylcellulose (MC) 95 % of control
